Measurements published in PubChem BioAssay AID2060505 (Molecular Pharmacology Branch, DTP, NCI, 2025).

System: 633275-114-R-J1-PDC complex spheroids, viability
Assay: Anticancer human tumor 633275-114-R-J1-PDC patient-derived endometrial adenocarcinoma cell line growth inhibition [GQUAD]
Conditions: for IC50: curve of first compound; for viability, T/C: stronger effect = lower value
Excerpt: DNA G-quadruplex Stabilizer Agents in Combinations in Complex Spheroids
A high-throughput screen of multi-cell type tumor spheroids was designed to identify active combinations of DNA G-quadruplex stabilizer agents and targeted small molecules. Complex spheroids include a stromal component modeled by human endothelial cells (HUVEC) and fibroblasts modeled by human mesenchymal stem cells (MSCs). The concentration ranges selected for each drug and investigational agent were based upon clinically achievable concentrations if the clinical Cmax of the agent was known.
Compounds. The drugs and investigational agents: pidnarulex (CX-5461; NSC782164), APTO-253 (NSC789042), BRACO-19 (NSC847499), peposertib (NSC802822), ceralasertib (NSC780249), elimusertib (NSC800525), camonsertib (NSC841442), AZD-1390 (NSC803789), olaparib (NSC753686), talazoparib (NSC767125), ART-558 (NSC835418), sotorasib (NSC818433), MRTX-1133 (NSC836407), SN-38 (NSC673596), topotecan (NSC609699), etoposide (NSC141540), doxorubicin (NSC123127), gemcitabine (NSC613327), 5-fluorouracil (NSC19893), paclitaxel (NSC125973), vemurafenib (NSC761431), panobinostat (NSC761190), R-306465 (JNJ-16241199; NSC773264), adavosertib (NSC754352), TP-3654 (NSC805149), carboplatin (NSC241240), KSQ-4279 (NSC840948), and staurosporine (NSC755774) were obtained from the National Cancer Institute (NCI) Developmental Therapeutics Program Chemical Repository (34). The FDA-approved anticancer drug set is available from the NCI Developmental Therapeutics Program. […] The stock solutions were prepared in dimethyl sulfoxide (DMSO, Sigma-Aldrich, St. Louis, MO, cat. D2650) at 800-fold the tested concentration and stored at -70 degrees C prior to their use. All drugs and investigational agents were tested over a range starting from a high concentration at or near the clinical Cmax and decreasing in half-log increments. If the clinical Cmax for an agent had not been determined, the highest concentration tested was 10 microM.
2.3 Cell Culture. All cells were maintained in an incubator at 37 degrees C and 5% CO2 with 95% humidity. The PDC lines were cultured according to standard operating procedures established by the NCI PDMR. All PDCs were thawed and cultured in Matrigel-coated flasks prepared with a working solution of 1X Ham's F-12 nutrient mix, without supplementation (Invitrogen, cat. 11765054), 100 U/mL penicillin-streptomycin (Invitrogen, cat. 15140122), and 2.5% Matrigel (Corning Inc., cat. 354248) for the first three passages. The 857933-349-R-J2-PDC line was cultured in 6C/Colon 1B media, which includes advanced DMEM/F-12 (Thermo Fisher Scientific, cat. 12634028), 10 mM HEPES (Thermo Fisher Scientific, cat. 15630080), 1X GlutaMAX supplement (Thermo Fisher Scientific, cat. 35050061), 0.1 mg/mL primocin (InvivoGen, cat. ant-pm-2), 10% defined fetal bovine serum, heat inactivated (HyClone Laboratories Inc., cat. SH30070.03HI), 50% L-WRN conditioned media (ATCC, cat. CRL-3276), 1.25 mM N-Acetyl-L-cysteine (Sigma-Aldrich, cat. A9165), 10 mM nicotinamide (Sigma-Aldrich, cat. N0636), 1X B-27 supplement (Thermo Fisher Scientific, cat. 17504044), 1X N-2 supplement (Thermo Fisher Scientific, cat. 17502048), 10 microM Y-27632 dihydrochloride (Tocris Bioscience, cat. 1254), and 50 ng/mL human EGF recombinant protein (Thermo Fisher Scientific, cat. PHG0311). The 485176-168-R4-J1-PDC line was cultured in Panc media, which includes all 6C/Colon 1B media components plus 100 ng/mL human FGF-10 (Thermo Fisher Scientific, cat. 100-26), 500 nM SB-431542 (Selleckchem, cat. S1067), and gastrin (Tocris, cat. 3006).
[…]

[1] = second compound 0.0316 µM, first compound 0.0316 µM
[2] = second compound 0.0316 µM, first compound 0.1 µM
[3] = second compound 0.0316 µM, first compound 0.316 µM
[4] = second compound 0.0316 µM, first compound 1 µM
[5] = second compound 0.0316 µM, first compound 3.16 µM
[6] = second compound 0.0316 µM, first compound 10 µM
[7] = second compound 0.1 µM, first compound 0.0316 µM
[8] = second compound 0.1 µM, first compound 0.1 µM
[9] = second compound 0.1 µM, first compound 0.316 µM
[10] = second compound 0.1 µM, first compound 1 µM
[11] = second compound 0.1 µM, first compound 3.16 µM
[12] = second compound 0.1 µM, first compound 10 µM
[13] = second compound 0.316 µM, first compound 0.0316 µM
[14] = second compound 0.316 µM, first compound 0.1 µM
[15] = second compound 0.316 µM, first compound 0.316 µM
[16] = second compound 0.316 µM, first compound 1 µM
[17] = second compound 0.316 µM, first compound 3.16 µM
[18] = second compound 0.316 µM, first compound 10 µM
[19] = second compound 1 µM, first compound 0.0316 µM
[20] = second compound 1 µM, first compound 0.1 µM
[21] = second compound 1 µM, first compound 0.316 µM
[22] = second compound 1 µM, first compound 1 µM
[23] = second compound 1 µM, first compound 3.16 µM
[24] = second compound 1 µM, first compound 10 µM
[25] = second compound 3.16 µM, first compound 0.0316 µM
[26] = second compound 3.16 µM, first compound 0.1 µM
[27] = second compound 3.16 µM, first compound 0.316 µM
[28] = second compound 3.16 µM, first compound 1 µM
[29] = second compound 3.16 µM, first compound 3.16 µM
[30] = second compound 3.16 µM, first compound 10 µM
[31] = second compound 10 µM, first compound 0.0316 µM
[32] = second compound 10 µM, first compound 0.1 µM
[33] = second compound 10 µM, first compound 0.316 µM
[34] = second compound 10 µM, first compound 1 µM
[35] = second compound 10 µM, first compound 3.16 µM
[36] = second compound 10 µM, first compound 10 µM
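Also: spheroids exposed to the agents for seven days.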
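For viability, T/C in this document: percent of DMSO vehicle control viability which is 100%.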

Compound C#Cc1c(F)ccc2cc(O)cc(-c3ncc4c(N5CC6CCC(C5)N6)nc(OCC56CCCN5CC(F)C6)nc4c3F)c12 (centres undefined) + Cc1cnc(CNC(=O)c2c(=O)c3ccc(N4CCCN(C)CC4)nc3n3c2sc2ccccc23)cn1 has an IC50 (second compound 0.0316 µM) of 3910 nM, an IC50 (second compound 0.1 µM) of 157 nM and an IC50 (second compound 0.316 µM) of under 31.6 nM. For the same compound, the IC50 (second compound 1 µM) was under 31.6 nM, the IC50 (second compound 3.16 µM) was under 31.6 nM and the IC50 (second compound 10 µM) was under 31.6 nM. For the same compound, the viability, T/C [1] was 68.9%, the viability, T/C [2] was 72.5% and the viability, T/C [3] was 65.2%. It also gave a viability, T/C [4] of 58.7%, a viability, T/C [5] of 47.1% and a viability, T/C [6] of 45.6%. For the same compound, the viability, T/C [7] was 52.3%, the viability, T/C [8] was 49.7% and the viability, T/C [9] was 52.1%. The viability, T/C [10] was 44.7%, the viability, T/C [11] was 39.8% and the viability, T/C [12] was 38.9%. For the same compound, the viability, T/C [13] was 47.1%, the viability, T/C [14] was 49.8% and the viability, T/C [15] was 43.7%. For the same compound, the viability, T/C [16] was 36.4%, the viability, T/C [17] was 37.2% and the viability, T/C [18] was 26.8%. For the same compound, the viability, T/C [19] was 41.7%, the viability, T/C [20] was 42.1% and the viability, T/C [21] was 42.1%. For the same compound, the viability, T/C [22] was 36.3%, the viability, T/C [23] was 30.9% and the viability, T/C [24] was 26.8%. The viability, T/C [25] was 38.4%, the viability, T/C [26] was 36.2% and the viability, T/C [27] was 34.4%. It also gave a viability, T/C [28] of 31.5%, a viability, T/C [29] of 27.7% and a viability, T/C [30] of 24.3%. It also gave a viability, T/C [31] of 31.3%, a viability, T/C [32] of 32.9% and a viability, T/C [33] of 26.5%. For the same compound, the viability, T/C [34] was 27.2%, the viability, T/C [35] was 23.7% and the viability, T/C [36] was 23.1%.
COc1cc(C2c3cc4c(cc3C(OC3OC5COC(C)OC5C(O)C3O)C3COC(=O)C23)OCO4)cc(OC)c1O (centres undefined) + Cc1[nH]c2ccc(F)cc2c1-c1nc2c3cccnc3c3ncccc3c2[nH]1 showed an IC50 (second compound 0.0316 µM) of 446 nM, an IC50 (second compound 0.1 µM) of 410 nM and an IC50 (second compound 0.316 µM) of 429 nM. For the same compound, the IC50 (second compound 1 µM) was 358 nM, the IC50 (second compound 3.16 µM) was 158 nM and the IC50 (second compound 10 µM) was 169 nM. The viability, T/C [1] was 88.3%, the viability, T/C [2] was 67.3% and the viability, T/C [3] was 52.6%. The viability, T/C [4] was 41.9%, the viability, T/C [5] was 40% and the viability, T/C [6] was 30.4%. The viability, T/C [7] was 87.8%, the viability, T/C [8] was 72.5% and the viability, T/C [9] was 50.1%. It also gave a viability, T/C [10] of 41.7%, a viability, T/C [11] of 39.2% and a viability, T/C [12] of 30.7%. For the same compound, the viability, T/C [13] was 85.5%, the viability, T/C [14] was 69.5% and the viability, T/C [15] was 51%. For the same compound, the viability, T/C [16] was 42.2%, the viability, T/C [17] was 38.3% and the viability, T/C [18] was 31.3%. The viability, T/C [19] was 86.5%, the viability, T/C [20] was 65.2% and the viability, T/C [21] was 51.6%. It also gave a viability, T/C [22] of 40.8%, a viability, T/C [23] of 36.1% and a viability, T/C [24] of 30.8%. For the same compound, the viability, T/C [25] was 64.2%, the viability, T/C [26] was 56.1% and the viability, T/C [27] was 41.7%. The viability, T/C [28] was 36.6%, the viability, T/C [29] was 37.3% and the viability, T/C [30] was 27.8%. The viability, T/C [31] was 65.5%, the viability, T/C [32] was 56.4% and the viability, T/C [33] was 41.8%. It also gave a viability, T/C [34] of 37.4%, a viability, T/C [35] of 33.4% and a viability, T/C [36] of 28.4%.
